Data on eleven compounds can be found in patent US11566007B2, “Ras inhibitors” (Revolution Medicines, Inc., priority 2019, dated 2023).

Common to all, as to format: biochemical
In test [1] the target is K-Ras G12C (Homo sapiens (Human), UniProt P01116+P62937, G12C). The experiment in a line: Ras-Raf (BRAF RBD) disruption / FRET / MOA assay, KRAS G12C. The conditions noted are these: KRAS G12C; Ras-Raf disruption/FRET/MOA assay; read-out: IC50* KRAS G12C FRET data. The method, boiled down:
(§1)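 Ternary complex formation (Ras–compound–cyclophilin A) displacing BRAF RBD, monitored by TR-FRET. Three hours at 25° C with compound (top 30 μM final), then 1.5 h with the labelled antibodies. Lower ratio than DMSO indicates disruption; IC50 reported.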

Test [2] concerns the target K-Ras G13C (Homo sapiens (Human), UniProt P01116+P62937, G13C). The experiment in a line: Ras-Raf (BRAF RBD) disruption / FRET / MOA assay, KRAS G13C. The following applies: KRAS G13C; Ras-Raf disruption/FRET/MOA assay; read-out: IC50* KRAS G13C FRET data. The method, boiled down:
as §1

In test [3] the target is KRAS G12S (Homo sapiens (Human), UniProt P01116+P62937, G12S). The experiment in a line: Ras-Raf (BRAF RBD) disruption / FRET / MOA assay, KRAS G12S. The conditions noted are these: Ras-Raf disruption/FRET/MOA assay; class symbols; read-out: KRAS G12S FRET data IC50. Put shortly: as §1
Test [4] has as its target KRAS G12V (Homo sapiens (Human), UniProt P01116+P62937, G12V). The experiment in a line: Ras-Raf (BRAF RBD) disruption / FRET / MOA assay, KRAS G12V. The following applies: read-out: IC50* KRAS G12V FRET data. The method, boiled down: as §1
Test [5] deals with KRAS WT (Homo sapiens (Human), UniProt P01116+P62937). Nature of the test: Ras-Raf (BRAF RBD) disruption / FRET / MOA assay, KRAS WT. The conditions noted are these: read-out: IC50* KRAS WT FRET data. Put shortly: as §1
Test [6] has as its target KRAS G13D (Homo sapiens (Human), UniProt P01116+P62937, G13D). Nature of the test: Ras-Raf (BRAF RBD) disruption / FRET / MOA assay, KRAS G13D. The conditions noted are these: read-out: IC50* KRAS G13D FRET data. The method, boiled down:
as §1

Test [7] has as its target NRAS G12C (Homo sapiens (Human), UniProt P01111+P62937, G12C). Nature of the test: Ras-Raf (BRAF RBD) disruption / FRET / MOA assay, NRAS G12C. The conditions noted are these: read-out: IC50* NRAS G12C FRET data. The method, boiled down:
as §1

The target in test [8] is NRAS Q61R (Homo sapiens (Human), UniProt P01111+P62937, Q61R). Nature of the test: Ras-Raf (BRAF RBD) disruption / FRET / MOA assay, NRAS Q61R. The following applies: NRAS Q61R; Ras-Raf disruption/FRET/MOA assay; read-out: IC50* NRAS Q61R FRET data. The method, boiled down: (§2)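 Compounds were tested as a 10-point 3-fold dilution series from 30 μM final for their ability to drive ternary complex formation between nucleotide-loaded Ras and cyclophilin A, displacing the BRAF RBD. After 3 h at 25° C., anti-His Eu-W1024 (10 nM) and anti-GST allophycocyanin (50 nM) were added for 1.5 h. A TR-FRET ratio decrease versus DMSO gave IC50.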

Test [9] has as its target NRAS Q61K (Homo sapiens (Human), UniProt P01111+P62937, Q61K). The experiment in a line: Ras-Raf (BRAF RBD) disruption / FRET / MOA assay, NRAS Q61K. The conditions noted are these: NRAS Q61K; Ras-Raf disruption/FRET/MOA assay; read-out: IC50* NRAS Q61K FRET data. The method, boiled down:
as §2

The target of test [10] is NRAS WT (Homo sapiens (Human), UniProt P01111+P62937). Nature of the test: Ras-Raf (BRAF RBD) disruption / FRET / MOA assay, NRAS WT. The conditions noted are these: read-out: IC50* NRAS WT FRET data. Put shortly: as §2

Structures are written as SMILES.

Chain of KRAS G13D (P01116-2 other isoform, or with tags, fused parts or gaps G13D): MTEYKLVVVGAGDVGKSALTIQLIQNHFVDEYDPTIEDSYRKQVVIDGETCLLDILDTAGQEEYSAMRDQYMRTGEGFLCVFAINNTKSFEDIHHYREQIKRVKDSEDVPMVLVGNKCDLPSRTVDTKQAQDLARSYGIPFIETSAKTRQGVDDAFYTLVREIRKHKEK
Chain of KRAS G13D (P62937 whole entry): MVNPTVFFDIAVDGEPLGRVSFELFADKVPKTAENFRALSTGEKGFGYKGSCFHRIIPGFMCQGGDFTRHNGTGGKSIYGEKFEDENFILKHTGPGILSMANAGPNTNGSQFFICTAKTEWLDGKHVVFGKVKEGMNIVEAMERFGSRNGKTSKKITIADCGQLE
Chain of NRAS WT (P01111 whole entry): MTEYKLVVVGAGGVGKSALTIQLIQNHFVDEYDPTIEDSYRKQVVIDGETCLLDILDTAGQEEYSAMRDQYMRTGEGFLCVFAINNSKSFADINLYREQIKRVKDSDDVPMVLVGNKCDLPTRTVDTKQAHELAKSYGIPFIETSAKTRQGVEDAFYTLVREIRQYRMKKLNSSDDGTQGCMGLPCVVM
Chain of NRAS WT (P62937 whole entry): as the sequence (P62937 whole entry) above
Chain of NRAS G12C (P01111 whole entry G12C): as the sequence (P01111 whole entry) above, with G12C counted along it
Chain of NRAS G12C (P62937 whole entry): as the sequence (P62937 whole entry) above
Chain of NRAS Q61K (P01111 whole entry Q61K): as the sequence (P01111 whole entry) above, with Q61K counted along it
Chain of NRAS Q61K (P62937 whole entry): as the sequence (P62937 whole entry) above
Chain of KRAS WT (P01116-2 other isoform, or with tags, fused parts or gaps): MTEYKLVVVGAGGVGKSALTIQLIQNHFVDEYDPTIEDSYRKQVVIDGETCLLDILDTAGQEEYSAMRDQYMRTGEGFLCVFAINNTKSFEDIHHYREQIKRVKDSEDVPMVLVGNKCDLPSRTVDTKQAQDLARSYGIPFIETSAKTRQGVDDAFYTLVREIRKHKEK
Chain of KRAS WT (P62937 whole entry): as the sequence (P62937 whole entry) above
Chain of KRAS G12S (P01116-2 other isoform, or with tags, fused parts or gaps G12S): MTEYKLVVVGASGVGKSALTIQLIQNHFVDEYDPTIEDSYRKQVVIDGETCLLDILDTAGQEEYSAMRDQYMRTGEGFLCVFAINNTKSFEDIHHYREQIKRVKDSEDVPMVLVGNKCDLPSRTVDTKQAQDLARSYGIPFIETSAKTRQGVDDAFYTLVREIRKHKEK
Chain of KRAS G12S (P62937 whole entry): as the sequence (P62937 whole entry) above
Chain of NRAS Q61R (P01111 whole entry Q61R): as the sequence (P01111 whole entry) above, with Q61R counted along it
Chain of NRAS Q61R (P62937 whole entry): as the sequence (P62937 whole entry) above
Chain of KRAS G12V (P01116-2 other isoform, or with tags, fused parts or gaps G12V): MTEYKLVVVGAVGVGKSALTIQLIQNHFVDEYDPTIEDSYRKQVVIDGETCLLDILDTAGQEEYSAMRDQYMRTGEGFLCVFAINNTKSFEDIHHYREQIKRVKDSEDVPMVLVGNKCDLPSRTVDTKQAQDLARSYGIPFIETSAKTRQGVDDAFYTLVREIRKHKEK
Chain of KRAS G12V (P62937 whole entry): as the sequence (P62937 whole entry) above
Chain of K-Ras G13C (P01116-2 other isoform, or with tags, fused parts or gaps G13C): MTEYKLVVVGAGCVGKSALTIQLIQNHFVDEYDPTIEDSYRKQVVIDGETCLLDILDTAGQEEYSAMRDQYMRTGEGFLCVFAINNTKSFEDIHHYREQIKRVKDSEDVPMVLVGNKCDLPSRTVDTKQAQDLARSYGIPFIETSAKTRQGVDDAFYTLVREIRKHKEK
Chain of K-Ras G13C (P62937 whole entry): as the sequence (P62937 whole entry) above
Chain of K-Ras G12C (P01116-2 other isoform, or with tags, fused parts or gaps G12C): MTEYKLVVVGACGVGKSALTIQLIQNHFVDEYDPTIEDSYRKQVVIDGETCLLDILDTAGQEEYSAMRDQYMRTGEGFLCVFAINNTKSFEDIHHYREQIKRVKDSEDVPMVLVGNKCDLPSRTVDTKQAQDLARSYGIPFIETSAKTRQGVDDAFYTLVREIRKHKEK
Chain of K-Ras G12C (P62937 whole entry): as the sequence (P62937 whole entry) above

Turning to `CCn1c(-c2cccnc2[C@H](C)OC)c2c3cc(ccc31)-c1csc(n1)C[C@H](NC(=O)[C@H](C(C)C)N(C)C(=O)N1CCC3(CC1)CN(C(=O)/C=C/C(F)F)C3)C(=O)N1CCC[C@H](N1)C(=O)OCC(C)(C)C2` (atropisomer, axis not shown) [Example A683], the half-maximal inhibitory concentration (IC50) was 10 to 100 nM in test [1]; under 10 nM in [2]; 100 to 1000 nM in test [3]; 100 to 1000 nM in test [4]; 100 to 1000 nM in test [5]; 100 to 1000 nM in [6]. For the same compound, the IC50 in test [7] lay in the range of 10 to 100 nM; in test [8], 100 to 1000 nM; in test [9], 10 to 100 nM; in test [10], 100 to 1000 nM.
With `C=CC(=O)N1CC[C@H](C(=O)N(C)[C@H](C(=O)N[C@H]2Cc3cccc(c3)-c3ccc4c(c3)c(c(-c3cccnc3[C@H](C)OC)n4CC)CC(C)(C)COC(=O)[C@@H]3CCCN(N3)C2=O)C(C)(C)F)C1` (atropisomer, axis not shown) [Example A693], the 50% inhibitory concentration (IC50) in test [1] fell in the range of 100 to 1000 nM; in test [2] it was 1000 to 10000 nM; in test [3] it was 1000 to 10000 nM; in test [4] it was 1000 to 10000 nM; in test [5] it was 1000 to 10000 nM; in [6], 1000 to 10000 nM. For the same compound, the IC50 in test [7] lay in the range of 100 to 1000 nM; in [8], 1000 to 10000 nM; in [9], 1000 to 10000 nM; in test [10], 1000 to 10000 nM.
For `C=CC(=O)N1CCC2(CCN(C(=O)N(C)[C@H](C(=O)N[C@H]3Cc4nc(cs4)-c4ccc5c(c4)c(c(-c4cccnc4[C@H](C)OC)n5CC)CC(C)(C)COC(=O)[C@@H]4CCCN(N4)C3=O)C(C)C)CC2)C1` (atropisomer, axis not shown) [Example A698], the 50% inhibitory concentration (IC50) in test [1] is 10 to 100 nM; in [2] it was 10 to 100 nM; in test [3], 100 to 1000 nM; in test [4], 100 to 1000 nM; in test [5], 100 to 1000 nM; in [6], 100 to 1000 nM. The IC50 was 10 to 100 nM in [7], 100 to 1000 nM in [8], 10 to 100 nM in [9] and 100 to 1000 nM in [10].
On to `CCn1c(-c2cccnc2[C@H](C)OC)c2c3cc(ccc31)-c1csc(n1)C[C@H](NC(=O)[C@H](C(C)C)N(C)C(=O)N1CCN(C(=O)/C=C/CN(C)C)C3(CC3)C1)C(=O)N1CCC[C@H](N1)C(=O)OCC(C)(C)C2` (atropisomer, axis not shown) [Example A701], for which the IC50 in test [1] lay in the range of 10 to 100 nM; in test [2], 100 to 1000 nM; in [3], 100 to 1000 nM; in test [4] it was 100 to 1000 nM; in test [5] it was 100 to 1000 nM; in [6], 100 to 1000 nM. Further, the IC50 in test [7] fell in the range of 10 to 100 nM; in test [8], 100 to 1000 nM; in test [9], 10 to 100 nM; in test [10] it was 100 to 1000 nM.
On to `C=CC(=O)N1CCC2(CC1)CN(C(=O)N(C)[C@H](C(=O)N[C@H]1Cc3nc(cs3)-c3ccc4c(c3)c(c(-c3cccnc3[C@H](C)OC)n4CC)CC(C)(C)COC(=O)[C@@H]3CCCN(N3)C1=O)C(C)C)C2` (atropisomer, axis not shown) [Example A702], for which the IC50 in test [1] fell in the range of 100 to 1000 nM; in [2], 100 to 1000 nM; in [3] it was 100 to 1000 nM; in test [4] it was 100 to 1000 nM; in test [5] it was 100 to 1000 nM; in [6] it was 1000 to 10000 nM. For the same compound, the IC50 was 100 to 1000 nM in test [7], 100 to 1000 nM in [8], 10 to 100 nM in test [9] and 100 to 1000 nM in test [10].
On to `C=CC(=O)N(C)[C@H]1C[C@@H](N(C)C(=O)N(C)[C@H](C(=O)N[C@H]2Cc3nc(cs3)-c3ccc4c(c3)c(c(-c3cccnc3[C@H](C)OC)n4CC)CC(C)(C)COC(=O)[C@@H]3CCCN(N3)C2=O)C(C)C)C1` (atropisomer, axis not shown) [Example A704], for which the IC50 lay in the range of 10 to 100 nM in test [1]; 100 to 1000 nM in test [2]; 100 to 1000 nM in [3]; 100 to 1000 nM in [4]; 10 to 100 nM in [5]; 100 to 1000 nM in [6]. Further, the half-inhibitory concentration (IC50) in [7], in test [8], in test [9] and in test [10] was 10 to 100 nM throughout.
On to `C=CC(=O)N(C)[C@H]1C[C@H](N(C)C(=O)N(C)[C@H](C(=O)N[C@H]2Cc3nc(cs3)-c3ccc4c(c3)c(c(-c3cccnc3[C@H](C)OC)n4CC)CC(C)(C)COC(=O)[C@@H]3CCCN(N3)C2=O)C(C)C)C1` (atropisomer, axis not shown) [Example A712], for which the IC50 lay within 10 to 100 nM in test [1]; 100 to 1000 nM in test [2]; 10 to 100 nM in [3]; 100 to 1000 nM in [4]; 10 to 100 nM in [5]; 100 to 1000 nM in test [6]. The IC50 in [7], in test [8], in test [9] and in test [10] was 10 to 100 nM throughout.
Consider `C=CC(=O)N1CCO[C@@H]2CN(C(=O)N(C)[C@H](C(=O)N[C@H]3Cc4nc(cs4)-c4ccc5c(c4)c(c(-c4cccnc4[C@H](C)OC)n5CC)CC(C)(C)COC(=O)[C@@H]4CCCN(N4)C3=O)C(C)C)C[C@@H]21` (atropisomer, axis not shown) [Example A714], for which the IC50 in test [1] was in the range of 100 to 1000 nM; in test [2], 10 to 100 nM; in test [3], 100 to 1000 nM; in test [4] it was 100 to 1000 nM; in [5], 100 to 1000 nM; in test [6], 1000 to 10000 nM. The IC50 in test [7], in test [8], in [9] and in test [10] was 100 to 1000 nM each time.
Turning to `CCn1c(-c2cccnc2[C@H](C)OC)c2c3cc(ccc31)N1CCC[C@@H](C[C@H](NC(=O)[C@@H](COC3CN(C(=O)C#CC(C)(C)N(C)C)C3)C(C)C)C(=O)N3CCC[C@H](N3)C(=O)OCC(C)(C)C2)C1` (atropisomer, axis not shown) [Example A715, (2R)-2-(((1-(4-(dimethylamino)-4-methylpent-2-ynoyl)azetidin-3-yl)oxy)methyl)-N-((2^3S,6^3S,4S)-1^1-ethyl-1^2-(2-((S)-1-methoxyethyl)pyridin-3-yl)-10,10-dimethyl-5,7-dioxo-6^1,6^2,6^3,6^4,6^5,6^6-hexahydro-1^1H-8-oxa-1(5,3)-indola-6(1,3)-pyridazina-2(1,3)-piperidinacycloundecaphane-4-yl)-3-methylbutanamide], the IC50 in test [1] is 10 to 100 nM; in test [2], over 10000 nM; in test [3] it was over 10000 nM; in test [4], over 10000 nM; in test [5], over 10000 nM; in [6], over 10000 nM. For the same compound, the IC50 was 10 to 100 nM in test [7], over 10000 nM in test [8], over 10000 nM in test [9] and over 10000 nM in test [10].
Consider `C=CC(=O)N1CCN(C(=O)N(C)[C@H](C(=O)N[C@H]2Cc3nc(cs3)-c3ccc4c(c3)c(c(-c3cccnc3[C@H](C)OC)n4CC)CC(C)(C)COC(=O)[C@@H]3CCCN(N3)C2=O)C(C)C)[C@@H]2CC[C@@H]21` (atropisomer, axis not shown) [Example A718], for which the IC50 in test [1] is 100 to 1000 nM; in [2], 10 to 100 nM; in test [3], 100 to 1000 nM; in test [4], 100 to 1000 nM; in [5], 100 to 1000 nM; in [6], 100 to 1000 nM. In addition, the IC50 lay within 100 to 1000 nM in test [7], 100 to 1000 nM in test [8], 10 to 100 nM in test [9] and 100 to 1000 nM in [10].
As for `C=CC(=O)N1CC[C@]2(CCN(C(=O)N(C)[C@H](C(=O)N[C@H]3Cc4nc(cs4)-c4ccc5c(c4)c(c(-c4cccnc4[C@H](C)OC)n5CC)CC(C)(C)COC(=O)[C@@H]4CCCN(N4)C3=O)C(C)C)C2)C1` (atropisomer, axis not shown) [Example A719], the IC50 in test [1] lay in the range of 10 to 100 nM; in [2], 10 to 100 nM; in test [3], 100 to 1000 nM; in [4] it was 100 to 1000 nM; in test [5] it was 100 to 1000 nM; in test [6], 100 to 1000 nM. Further, the IC50 in test [7], in test [8], in test [9] and in [10] was 10 to 100 nM each time.

What is called IC50 is the point on the concentration scale where inhibition reaches its midpoint.
